In publication PMC8279417 (Journal of Medicinal Chemistry, 2021):
Where two headings read alike, the source gives them in different places.

Legend:
ERα [1] = biological target: T1, ERα (Homo sapiens, UniProt P03372); experiment: In-Cell Western immunoassay, ERα levels in MCF-7 cells; type: cell-based; details: for % ERα remaining [1 μM]: MCF-7 cells, 24 h, compared to the solvent control (DMSO)
T1 sequence (P03372 1-595): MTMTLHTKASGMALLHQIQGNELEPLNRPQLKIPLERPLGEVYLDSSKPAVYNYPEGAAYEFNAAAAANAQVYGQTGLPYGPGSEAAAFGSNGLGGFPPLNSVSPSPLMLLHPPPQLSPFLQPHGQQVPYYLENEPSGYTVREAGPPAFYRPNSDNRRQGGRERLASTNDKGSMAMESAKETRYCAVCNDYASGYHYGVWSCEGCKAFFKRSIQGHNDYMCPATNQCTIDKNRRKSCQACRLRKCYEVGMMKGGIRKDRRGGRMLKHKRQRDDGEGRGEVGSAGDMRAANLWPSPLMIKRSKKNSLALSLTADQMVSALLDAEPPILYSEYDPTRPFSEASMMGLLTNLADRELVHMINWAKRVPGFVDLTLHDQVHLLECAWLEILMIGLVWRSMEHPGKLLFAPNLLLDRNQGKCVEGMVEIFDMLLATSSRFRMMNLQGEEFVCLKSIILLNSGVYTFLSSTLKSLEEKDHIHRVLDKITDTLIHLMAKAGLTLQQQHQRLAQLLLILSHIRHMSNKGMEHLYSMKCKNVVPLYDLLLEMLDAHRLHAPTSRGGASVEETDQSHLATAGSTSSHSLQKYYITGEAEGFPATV
Description: Degradation was evaluated with the CellTagTM 700 In-Cell Western kit (LI-COR, Lincoln) according to the manufacturer’s protocol. MCF-7 cells were treated, and calculation was performed as previously described.[24]

ERα [2] = biological target: T1, ERα; experiment: Luciferase reporter gene assay (transactivation), U2OS cells transfected with pSG5-ERα; type: cell-based; details: inhibition of E2-induced (0.03 nM) transactivation
ERα [3] = biological target: T2, ERα (Homo sapiens, UniProt P03372); details: for IC50: read-out: TR-FRET ERα IC50, displacement of fluorescent-labeled E2 from the LBD of ERα; for RBA ERα: relative binding affinity compared to E2 (100%)
T2 sequence (P03372 311-547 limits assumed): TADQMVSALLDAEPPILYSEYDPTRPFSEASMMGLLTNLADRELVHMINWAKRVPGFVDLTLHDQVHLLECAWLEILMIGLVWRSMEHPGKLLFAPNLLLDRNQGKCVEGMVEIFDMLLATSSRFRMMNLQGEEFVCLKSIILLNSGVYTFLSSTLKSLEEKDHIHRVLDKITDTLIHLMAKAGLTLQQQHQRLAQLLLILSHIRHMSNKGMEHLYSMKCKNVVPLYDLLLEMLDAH
Description: (§1) LanthaScreen TR-FRET ER alpha/beta competitive binding assays (Invitrogen, Carlsbad) were used to investigate the binding affinity to the isolated receptors according to the manufacturer′s protocols. Measurement was performed with an Enspire multimode plate reader (PerkinElmer Life Sciences, Waltham). Calculations were performed with Excel (Microsoft, Redmond) and GraphPad Prism (GraphPad Software, San Diego).

ERβ [4] = biological target: T3, ERβ (Homo sapiens, UniProt Q92731); experiment: Luciferase reporter gene assay (transactivation), U2OS cells transfected with pSG5-ERβ; type: cell-based; details: inhibition of E2-induced (0.3 nM) transactivation
Target sequence in this assay (Q92731 whole entry, the tested form may be a part): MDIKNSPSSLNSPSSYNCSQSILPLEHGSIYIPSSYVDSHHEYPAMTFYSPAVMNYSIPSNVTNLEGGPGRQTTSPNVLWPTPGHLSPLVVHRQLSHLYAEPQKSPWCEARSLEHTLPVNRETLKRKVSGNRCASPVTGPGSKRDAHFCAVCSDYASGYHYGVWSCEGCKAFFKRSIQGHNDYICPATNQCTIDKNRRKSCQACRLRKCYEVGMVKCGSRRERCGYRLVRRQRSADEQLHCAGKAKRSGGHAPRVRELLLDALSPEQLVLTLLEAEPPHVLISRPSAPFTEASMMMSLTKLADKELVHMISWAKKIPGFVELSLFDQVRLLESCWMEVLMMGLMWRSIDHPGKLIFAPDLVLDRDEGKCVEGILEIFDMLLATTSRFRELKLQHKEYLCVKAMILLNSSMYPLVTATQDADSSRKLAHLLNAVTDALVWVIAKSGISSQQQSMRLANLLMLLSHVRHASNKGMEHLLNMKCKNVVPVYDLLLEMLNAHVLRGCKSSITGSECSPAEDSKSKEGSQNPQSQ

ERβ [5] = biological target: T3, ERβ; details: for IC50: read-out: TR-FRET ERβ IC50, displacement of fluorescent-labeled E2 from the LBD of ERβ; for RBA ERβ: relative binding affinity compared to E2 (100%)
Target sequence in this assay (Q92731 264-498 limits assumed): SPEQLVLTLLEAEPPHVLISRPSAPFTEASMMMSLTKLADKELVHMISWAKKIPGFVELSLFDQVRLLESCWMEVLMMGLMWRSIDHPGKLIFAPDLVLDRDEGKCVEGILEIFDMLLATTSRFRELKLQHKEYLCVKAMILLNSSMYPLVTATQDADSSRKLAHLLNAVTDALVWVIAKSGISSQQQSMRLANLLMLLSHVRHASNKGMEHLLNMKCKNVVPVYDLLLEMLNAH
Description: as §1

ERα [6] = biological target: T2, ERα; experiment: TR-FRET coactivator (PGC-1 peptide) recruitment assay, ERα LBD; type: biochemical; details: E2 4 nM; for IC50: read-out: inhibition of coactivator recruitment IC50, ERα
Description: drug concentrations: 5 nM to 3 μM) after an incubation time of 10 or 30 min.
Coactivator recruitment was tested using the LanthaScreen® TR-FRET ERα coactivator assay. The binding
of the fluorescein-labeled PGC1a coactivator peptide to the ERα LBD protein labeled with terbium was

ERβ [7] = biological target: T3, ERβ; details: E2 34 nM, incubation time 30 min; for IC50: read-out: inhibition of coactivator recruitment IC50, ERβ
Target sequence in this assay (Q92731 whole entry, the tested form may be a part): as the sequence (Q92731 whole entry, the tested form may be a part) above

MCF-7TamR cells = experiment: Crystal violet assay, MCF-7TamR cells; type: cell-based
MCF-7 cells = experiment: Crystal violet assay, MCF-7 cells; type: cell-based; details: for time to cytocidal effects, MCF-7: time-dependent experiment
MDA-MB-231 cells = experiment: Crystal violet assay, MDA-MB-231 cells; type: cell-based
[8] = MCF7, read-out: % efficacy [1 μM], downregulation of ERα compared to fulvestrant (100%), MCF-7, 1 μM

Structure (SMILES)	IC50 (ERα [2]) [nM]	IC50 (ERα [3]) [nM]	RBA ERα (ERα [3]) [%]	IC50 (ERβ [4]) [nM]	IC50 (ERβ [5]) [nM]	RBA ERβ (ERβ [5]) [%]	% ERα remaining [1 μM] (ERα [1]) [%]	also measured
CCC(=C(c1ccc(O)cc1)c1ccc(/C=C/C(=O)NCCCNC(=O)c2ccc(N3CCN(C(=O)CCCCCCCn4c(=S)[nH]c5ccccc5c4=O)CC3)cc2)cc1)c1ccccc1 (mixture of isomers) [Compound 18]	914 ± 50	4.23 ± 1.12	7.8	157 ± 22	6.81 ± 1.86	10.9		Emax at 1 µM (ERα [1]; [8]): 64%
CCC(=C(c1ccc(O)cc1)c1ccc(/C=C/C(=O)NCCNC(=O)CCc2nc3cc(OC)ccc3[nH]2)cc1)c1ccccc1 (mixture of isomers) [Compound 31, (E)-3-[4-((E/Z)-1-(4-Hydroxyphenyl)-2-phenylbut-1-enyl)phenyl]-N-[2-(3-(5-methoxy-1H-benzo[d]imidazol-2-yl)propanamido)ethyl]acrylamide]			12	6.7 ± 2.7	4.88 ± 2.65	15.2	113.8 ± 4.3	
CCC(=C(c1ccc(O)cc1)c1ccc(/C=C/C(=O)NCCCNC(=O)CCc2nc3ccc(OC)cc3[nH]2)cc1)c1ccccc1 (mixture of isomers) [Compound 32, (E)-3-[4-((E/Z)-1-(4-Hydroxyphenyl)-2-phenylbut-1-enyl)phenyl]-N-[3-(3-(5-methoxy-1H-benzo[d]imidazol-2-yl)propanamido)propyl]acrylamide]	21.5 ± 10.7	4.11 ± 1.88	8	26.9 ± 5.7	3.01 ± 4	24.7	120.3 ± 31.6	
CCC(=C(c1ccc(O)cc1)c1ccc(/C=C/C(=O)NCCCCNC(=O)CCc2nc3cc(OC)ccc3[nH]2)cc1)c1ccccc1 (mixture of isomers) [Compound 34, (E)-3-[4-((E/Z)-1-(4-Hydroxyphenyl)-2-phenylbut-1-enyl)phenyl]-N-[4-(3-(5-methoxy-1H-benzo[d]imidazol-2-yl)propanamido)butyl]acrylamide]	34.5 ± 3.5	2.22 ± 0.76	14.9				132.9 ± 14.1	
CCC(=C(c1ccc(O)cc1)c1ccc(/C=C/C(=O)NCCCCCNC(=O)CCc2nc3ccc(OC)cc3[nH]2)cc1)c1ccccc1 (mixture of isomers) [Compound 36, (E)-3-[4-((E/Z)-1-(4-Hydroxyphenyl)-2-phenylbut-1-enyl)phenyl]-N-[5-(3-(5-methoxy-1H-benzo[d]imidazol-2-yl)propanamido)pentyl]acrylamide]	9.2 ± 3.2	1.56 ± 0.63	21.1	8.9 ± 4	7.84 ± 0.25	9.5	130.0 ± 15.1	IC50 (ERα [6]; incubation time 10 min): 36.3 nM; IC50 (ERα [6]; incubation time 30 min): 153 nM; IC50 (ERβ [7]): 154 nM
CCC(=C(c1ccc(O)cc1)c1ccc(/C=C/C(=O)NCCCCCCNC(=O)CCc2nc3cc(OC)ccc3[nH]2)cc1)c1ccccc1 (mixture of isomers) [Compound 38, (E)-3-[4-((E/Z)-1-(4-Hydroxyphenyl)-2-phenylbut-1-enyl)phenyl]-N-[6-(3-(5-methoxy-1H-benzo[d]imidazol-2-yl)propanamido)hexyl]acrylamide]	9.4 ± 2.7	2.61 ± 2.25	12.6	9 ± 3.3	5.22 ± 0.65	14.3	101.8 ± 1.9	T/Ccorr MCF-7TamR (MCF-7TamR cells): about 40%
CCC(=C(c1ccc(O)cc1)c1ccc(/C=C/C(=O)NCCNC(=O)CCc2nc3cc(O)ccc3[nH]2)cc1)c1ccccc1 (mixture of isomers) [Compound 39, (E)-N-[2-(3-(5-Hydroxy-1H-benzo[d]imidazol-2-yl)propanamido)ethyl]-3-[4-((E/Z)-1-(4-hydroxyphenyl)-2-phenylbut-1-enyl)phenyl]acrylamide]	26 ± 6.6	1.45 ± 0.37	22.8				99.2 ± 3.5	Emax at 1 µM (ERα [1]; [8]): 1%
CCC(=C(c1ccc(O)cc1)c1ccc(/C=C/C(=O)NCCCNC(=O)CCc2nc3cc(O)ccc3[nH]2)cc1)c1ccccc1 (mixture of isomers) [Compound 40, (E)-N-[3-(3-(5-Hydroxy-1H-benzo[d]imidazol-2-yl)propanamido)propyl]-3-[4-((E/Z)-1-(4-hydroxyphenyl)-2-phenylbut-1-enyl)phenyl]acrylamide]				18.7 ± 8.3	3.78 ± 1.54	19.7		
CCC(=C(c1ccc(O)cc1)c1ccc(/C=C/C(=O)NCCCCNC(=O)CCc2nc3cc(O)ccc3[nH]2)cc1)c1ccccc1 (mixture of isomers) [Compound 41, (E)-N-[4-(3-(5-Hydroxy-1H-benzo[d]imidazol-2-yl)propanamido)butyl]-3-[4-((E/Z)-1-(4-hydroxyphenyl)-2-phenylbut-1-enyl)phenyl]acrylamide]				15.9 ± 1.7	2.84 ± 1.31	26.2		
CCC(=C(c1ccc(O)cc1)c1ccc(/C=C/C(=O)NCCCCCNC(=O)CCc2nc3cc(O)ccc3[nH]2)cc1)c1ccccc1 (mixture of isomers) [Compound 42, (E)-N-[5-(3-(5-Hydroxy-1H-benzo[d]imidazol-2-yl)propanamido)pentyl]-3-[4-((E/Z)-1-(4-hydroxyphenyl)-2-phenylbut-1-enyl)phenyl]acrylamide]	30.9 ± 8.7	1.28 ± 0.58	25.7	46.5 ± 20.7	3.81 ± 2.35	19.5	92.0 ± 5.5	IC50 (ERα [6]; incubation time 10 min): 23.3 nM; Emax at 1 µM (ERα [1]; [8]): 8%; IC50 (ERβ [7]): 64 nM
CCC(=C(c1ccc(O)cc1)c1ccc(/C=C/C(=O)NCCCCCCNC(=O)CCc2nc3cc(O)ccc3[nH]2)cc1)c1ccccc1 (mixture of isomers) [Compound 43, (E)-N-[6-(3-(5-Hydroxy-1H-benzo[d]imidazol-2-yl)propanamido)hexyl]-3-[4-((E/Z)-1-(4-hydroxyphenyl)-2-phenylbut-1-enyl)phenyl]acrylamide]				16.1 ± 7	7.8 ± 2.3	9.5		
CCC(=C(c1ccc(O)cc1)c1ccc(/C=C/C(=O)O)cc1)c1ccccc1 (mixture of isomers) [GW7604, (E/Z)-3-(4-((E)-1-(4-Hydroxyphenyl)-2-phenylbut-1-enyl)phenyl)acrylic acid, reference compound]						27.1	44.3 ± 12.1	T/Ccorr MCF-7TamR (MCF-7TamR cells): 68%; reduction of PGC-1 binding at ERα (ERα [6]; 1 μM, after 10 min of incubation): completely reduced; coactivator binding (ERα [6]; 5 μM, after 30 min, ERα): 45%; Emax at 1 µM (ERα [1]; MCF7, read-out: % efficacy [1 μM]): 56%; repression of PGC1 binding at ERβ (ERβ [7]; 3 μM): complete repression
CC/C(=C(\c1ccc(O)cc1)c1ccc(OCCN(C)C)cc1)c1ccccc1 [4-OHT, (Z)-4-hydroxytamoxifen]								T/Ccorr MCF-7TamR (MCF-7TamR cells; 10 μM, 120 h): −57%; T/Ccorr MCF-7 (MCF-7 cells; 10 μM, 120 h): −55%; time to cytocidal effects, MCF-7 (MCF-7 cells; 10 μM): 48 h; time to cytocidal effects, MCF-7 (MCF-7 cells; 20 μM): 24 h; T/Ccorr MDA-MB-231 (MDA-MB-231 cells; 10 μM, 120 h): 10%; time to cytocidal effects, MDA-MB-231 (MDA-MB-231 cells; 20 μM, time-dependent experiment): 24 h
C[C@]12CC[C@@H]3c4ccc(O)cc4C[C@@H](CCCCCCCCC[S+]([O-])CCCC(F)(F)C(F)(F)F)[C@H]3[C@@H]1CC[C@@H]2O (stereo partly shown) [fulvestrant, reference compound]						10.0		
